Measured values published in BigSolDB 2.1.

CC(=O)Oc1ccc(C2CC(=O)c3c(OC(C)=O)cc(OC(C)=O)cc3O2)cc1 (stereo not given)
solubility (mole fraction)
Conditions | 278.2 K | 288.2 K | 298.2 K | 308.2 K | 318.2 K
in 2-butoxyethanol | 0.0018 | 0.00253 | 0.00337 | 0.00476 | 0.00712
in 2-methoxyethanol | 0.00836 | 0.0108 | 0.0174 | 0.0235 | 0.0356
in 2-propoxyethanol | 0.00485 | 0.00629 | 0.00775 | 0.00887 | 0.0116
in THF | 0.0413 | 0.0483 | 0.058 | 0.0732 | 0.0902
in acetone | 0.0759 | 0.0869 | 0.11 | 0.129 | 0.166
in ethanol | 0.000721 | 0.000931 | 0.00132 | 0.00175 | 0.00239
in ethyl acetate | 0.022 | 0.034 | 0.045 | 0.0714 | 0.103
in isopropanol | 0.000289 | 0.000426 | 0.000667 | 0.00102 | 0.00152
in methanol | 0.00122 | 0.00155 | 0.00217 | 0.00289 | 0.00407
in n-butanol | 0.000228 | 0.000353 | 0.000491 | 0.000752 | 0.00106
in n-hexanol | 1.8e-05 | 2.4e-05 | 3e-05 | 4.6e-05 | 6.4e-05
in n-pentanol | 0.000249 | 0.000402 | 0.000556 | 0.00101 | 0.00141
in n-propanol | 0.000649 | 0.000873 | 0.00127 | 0.00165 | 0.00245
in sec-butanol | 0.000216 | 0.000372 | 0.000507 | 0.000824 | 0.00122
